Results taken from PMC3063124 (The Journal of neuroscience : the official journal of the …, 2011).

Molecular target: GluN1/GluN2D (Rattus norvegicus, UniProt Q62645)
Format: cell-based
Conditions: absence of QNZ46; continuous presence of glycine

GluN1/GluN2D, sequence (Q62645 28-1323, other chains not shown): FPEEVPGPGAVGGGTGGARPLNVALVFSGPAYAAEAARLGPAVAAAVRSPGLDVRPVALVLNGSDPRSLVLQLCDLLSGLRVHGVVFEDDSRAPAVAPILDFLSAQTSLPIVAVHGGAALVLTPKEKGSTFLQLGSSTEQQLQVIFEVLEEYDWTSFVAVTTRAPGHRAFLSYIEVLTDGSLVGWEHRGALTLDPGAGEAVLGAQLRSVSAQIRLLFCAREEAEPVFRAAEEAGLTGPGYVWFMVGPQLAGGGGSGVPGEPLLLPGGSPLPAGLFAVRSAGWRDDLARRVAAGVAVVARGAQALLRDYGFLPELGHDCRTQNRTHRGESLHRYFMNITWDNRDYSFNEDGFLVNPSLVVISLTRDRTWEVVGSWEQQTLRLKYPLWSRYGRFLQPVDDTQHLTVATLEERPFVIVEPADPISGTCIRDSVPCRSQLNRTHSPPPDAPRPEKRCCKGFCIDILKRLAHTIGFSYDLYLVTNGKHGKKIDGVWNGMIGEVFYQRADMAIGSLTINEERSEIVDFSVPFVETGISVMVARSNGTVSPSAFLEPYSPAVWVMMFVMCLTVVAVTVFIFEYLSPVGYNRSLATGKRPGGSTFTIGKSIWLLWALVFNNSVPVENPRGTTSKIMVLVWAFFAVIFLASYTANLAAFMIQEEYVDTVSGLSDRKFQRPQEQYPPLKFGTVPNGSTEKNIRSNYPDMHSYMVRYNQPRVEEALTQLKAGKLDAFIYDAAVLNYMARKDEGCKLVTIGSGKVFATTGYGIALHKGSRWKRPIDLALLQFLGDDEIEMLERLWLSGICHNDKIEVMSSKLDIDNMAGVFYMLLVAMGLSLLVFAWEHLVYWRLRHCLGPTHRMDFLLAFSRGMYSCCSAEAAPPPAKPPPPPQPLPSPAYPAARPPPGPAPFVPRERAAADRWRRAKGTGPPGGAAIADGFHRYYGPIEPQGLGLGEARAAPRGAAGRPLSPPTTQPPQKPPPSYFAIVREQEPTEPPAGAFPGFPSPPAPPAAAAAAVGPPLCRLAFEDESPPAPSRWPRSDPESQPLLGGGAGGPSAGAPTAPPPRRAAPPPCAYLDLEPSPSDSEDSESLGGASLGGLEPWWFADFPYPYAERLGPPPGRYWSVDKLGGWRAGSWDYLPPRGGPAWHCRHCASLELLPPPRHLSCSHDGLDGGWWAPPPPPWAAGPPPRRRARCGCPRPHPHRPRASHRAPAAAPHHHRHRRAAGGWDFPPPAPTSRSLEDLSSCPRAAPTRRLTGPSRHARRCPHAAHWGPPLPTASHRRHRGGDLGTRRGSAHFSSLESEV

CN[C@H](CC(=O)O)C(=O)O [NMDA, N-methyl-D-aspartate, reference compound]
time constant for agonist deactivation (τweighted): 92 ms
